Source: patent US20090227619A1, “Harmine derivatives, intermediates used in their preparations, preparation processes and use therefo” (priority 2003, published 2009)
Like-named read-outs stand apart in the source and are kept apart here.

Assays:
HepG2 = test: In vitro cytotoxicity, IC50 by MTT method, HepG2; format: cell-based, human
Procedure, shortened: (§1)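 Cells in RPMI1640 with 10% FBS at 37° C, 5% CO2 were seeded at 10^5/ml and exposed to a compound concentration gradient for 48 h, at least three replicates, solvent controls.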

Hela = test: In vitro cytotoxicity, IC50 by MTT method, Hela; format: cell-based
Procedure, shortened: as §1

NIH3T3 = test: In vitro cytotoxicity, IC50 by MTT method, NIH3T3; format: cell-based
Procedure, shortened: as §1

S180 sarcoma = details: for Body weight of the animals, beginning, First time / Body weight of the animals, end, First time / Inhibition rate, First time / Weight of the tumor X ± SD, First time / Body weight of the animals, beginning, Second time / Body weight of the animals, end, Second time / Inhibition rate, Second time: ip × 10qd
CT-DNA [1] = test: DNA thermal denaturation, determination of ΔTm; format: binding; details: 20 uM compound, Tm of CT-DNA alone 61° C.
Procedure, shortened: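 CT-DNA at 15 ug/ml in PE buffer (1 mM Na2HPO4, 0.1 mM EDTA, pH 7.6), heated at 0.5° C./min from 25 to 95° C. Tm taken as hyperchromic transition mid-point; ΔTm = Tm of drug-DNA complex minus Tm of DNA alone, mean of three runs.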

PLA-801 = test: In vitro cytotoxicity, IC50 by MTT method, PLA-801; format: cell-based
Procedure, shortened: as §1

Lewis lung cancer = details: for Body weight of the animals, end, First time / Body weight of the animals, end, Second time: ip × 10qd
From the text: There was one group of 8 to 10 mice C57BL/6 and Kunming mice for the anti-tumor tests and two groups of mice for negative control.
(3) Sources of tumors: Lewis lung cancer cells and S180 sarcoma in mice, which were sub-cultured and maintained by Pharmacological Center of Shanghai Pharmaceutical Industrial Research Institute.
All samples were weighed and added a small amount of Tween-80 to facilitate dissolution during the experiment, and then 0.5% CMC-Na solution was gradually added to achieve the desired concentration. The volume for experiment was 0.5 ml/20 g mouse.
The medicaments were intraperitoneally administered once a day continuously for 10 days.
For the negative control group, a vehicle of the same volume was intraperitoneally administered once a day continuously for 10 days. For the positive control group, CTX was administered in the dosage of 30 mg/kg once a day continuously for 7 days.
In vivo anti-tumor subcutaneous vaccination in the axilla was employed. Wildly grown tumor source was taken under sterile conditions to form a cell suspension of about 1×10^7 ml by homogenization method. For a corresponding mouse host, the suspension was injected in the axilla in an amount of 0.2 ml/mouse. The next day, the medicaments were administered according to the design of the tests. About three weeks later, all the groups of animals were executed. The tumors were taken from the animals and weighed. The inhibition rate of tumors was calculated according to the following formula:
T: average tumor weight of treated group; C: average tumor weight of negative control group.

BGC-823 = test: In vitro cytotoxicity, IC50 by MTT method, BGC-823; format: cell-based
Procedure, shortened: as §1

Lovo = test: In vitro cytotoxicity, IC50 by MTT method, Lovo; format: cell-based
Procedure, shortened: as §1

Kunming mice = details: summary Table 34, compounds marked *, results [153] of the previous tests; in mg/kg; cited from earlier work
Bel-7402 = test: In vitro cytotoxicity, IC50 by MTT method, Bel-7402; format: cell-based
Procedure, shortened: as §1

CT-DNA [2] = test: UV absorption spectrum method with CT-DNA; format: binding; details: CT-DNA 40 ug/ml, compound 20 uM, 37° C. for 2 h, OD at 260 nm
HepG2 cells = test: FCM analysis of apoptosis of HepG2 cells; format: cell-based, human; details: FIG. 6
[3] = Homo sapiens, HepG2, MTT, read-out: IC50
[4] = Homo sapiens, Hela, MTT, read-out: IC50
[5] = Mus musculus, NIH3T3, MTT, read-out: IC50
[6] = comparison table 43, in vivo, S180 sarcoma
[7] = comparison table 43, in vivo, Lewis lung cancer
[8] = Homo sapiens, BGC-823, BGC823, MTT, read-out: IC50
[9] = Homo sapiens, Lovo, MTT, read-out: IC50
[10] = Homo sapiens, Bel-7402, BeI7402, MTT, read-out: IC50
[11] = S180 sarcoma, Dosage 50 (mg/ml)
[12] = S180 sarcoma, Dosage 100 (mg/ml)
[13] = Lewis lung cancer, Dosage 50 (mg/ml)
[14] = Lewis lung cancer, Dosage 50, ip × 10qd
[15] = Lewis lung cancer, Dosage 100 (mg/ml)
[16] = Lewis lung cancer, Dosage 100, ip × 10qd
[17] = Homo sapiens, HepG2 cell strain, read-out: IC50 HepG2
[18] = Homo sapiens, Hela cell strain, read-out: IC50 Hela
[19] = Mus musculus, NIH3T3 cell strain, read-out: IC50 NIH3T3
[20] = PLA-801 cell strain, read-out: IC50 PLA-801
[21] = Homo sapiens, BGC-823, BGC823 cell strain, read-out: IC50 BGC823
[22] = Homo sapiens, Lovo cell strain, read-out: IC50 Lovo
[23] = Homo sapiens, Bel-7402, Bel7402 cell strain, read-out: IC50 Bel7402
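Wherever Anti-tumor activity compared with harmine (compound 1) is given: mice implanted subcutaneously in the axilla with Lewis lung tumor cells, treated starting the following day, killed roughly three weeks after implantation.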
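Wherever Inhibition rate (%) Lewis cancer is given: mice implanted subcutaneously in the axilla with Lewis lung tumor cells, treated starting the following day, killed roughly three weeks after implantation.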

## COc1ccc2c3ccnc(C)c3n(C)c2c1 [Compound 2, 7-methoxyl-1,9-dimethyl-β-carboline]
HepG2; [3]
  IC50: 20 µM
Hela; [4]
  IC50: 10 µM
NIH3T3; [5]
  IC50: 40 µM
S180 sarcoma; [6]
  Inhibition rate (%) S180 sarcomata: 32.1%
CT-DNA [1]; CT-DNA thermal denaturation
  ΔTm: 5.3 °C
PLA-801; PLA-801, MTT, read-out: IC50
  IC50: 30 µM
Lewis lung cancer; [7]
  Inhibition rate (%) Lewis cancer: 38.1%
BGC-823; [8]
  IC50: 50 µM
Lovo; [9]
  IC50: 40 µM
Kunming mice
  LD50: 28.92
Bel-7402; [10]
  IC50: 60 µM

## CCn1c2cc(OC)ccc2c2ccnc(C)c21 [Compound 3, 7-methoxyl-9-ethyl-1-methyl-β-carboline]
HepG2; Homo sapiens, HepG2
  IC50: 10 µM
Hela; Homo sapiens, HeLa
  IC50: 20 µM
NIH3T3; Mus musculus, NIH3T3
  IC50: 70 µM
S180 sarcoma; mouse, in vivo
  Inhibition rate (%) S180 sarcomata: 37.6%
CT-DNA [1]; CT-DNA thermal denaturation
  ΔTm: 7.3 °C
CT-DNA [2]
  Influence on the UV absorption of DNA: reduce the UV absorption of DNA
PLA-801
  IC50: 20 µM
Lewis lung cancer; mouse, in vivo
  Inhibition rate (%) Lewis cancer: 42.0%
BGC-823; Homo sapiens, BGC-823
  IC50: 50 µM
Lovo; Homo sapiens, LoVo
  IC50: 170 µM
Kunming mice
  LD50: 24.25
Bel-7402; Homo sapiens, Bel-7402
  IC50: 30 µM

## CCCCn1c2cc(OC)ccc2c2ccnc(C)c21 [Compound 4, 7-methoxyl-9-n-butyl-1-methyl-β-carboline]
HepG2; [3]
  IC50: 60 µM
Hela; [4]
  IC50: 30 µM
NIH3T3; [5]
  IC50: 40 µM
S180 sarcoma; [6]
  Inhibition rate (%) S180 sarcomata: 40.9%
CT-DNA [1]; CT-DNA thermal denaturation
  ΔTm: 6.7 °C
CT-DNA [2]
  Influence on the UV absorption of DNA: reduce the UV absorption of DNA
PLA-801; PLA-801, MTT, read-out: IC50
  IC50: 110 µM
Lewis lung cancer; [7]
  Inhibition rate (%) Lewis cancer: 44.0%
BGC-823; [8]
  IC50: 70 µM
Lovo; [9]
  IC50: 90 µM
Kunming mice
  LD50: 26.45
Bel-7402; [10]
  IC50: 60 µM

## COc1ccc2c3ccnc(C)c3n(Cc3ccccc3)c2c1 [Compound 6, 9-benzyl-7-methoxy-1-methyl-β-carboline]
HepG2; [3]
  IC50: 90 µM
Hela; [4]
  IC50: 270 µM
NIH3T3; [5]
  IC50: 50 µM
S180 sarcoma; [6]
  Inhibition rate (%) S180 sarcomata: 45.2%
CT-DNA [1]; CT-DNA 15 ug/ml, PE buffer pH 7.6
  ΔTm: 10.3 °C
CT-DNA [1]; CT-DNA thermal denaturation
  ΔTm: 10.3 °C
CT-DNA [2]
  Influence on the UV absorption of DNA: reduce the UV absorption of DNA
PLA-801; PLA-801, MTT, read-out: IC50
  IC50: 60 µM
Lewis lung cancer; [7]
  Inhibition rate (%) Lewis cancer: 46.9%
BGC-823; [8]
  IC50: 100 µM
Lovo; [9]
  IC50: 50 µM
Kunming mice
  LD50: 147.82
Bel-7402; [10]
  IC50: 60 µM

## O=C(O)c1cc2c(cn1)[nH]c1ccccc12 [Compound 17, β-carboline-3-carboxylic acid]
HepG2; [3]
  IC50: 280 µM
Hela; [4]
  IC50: 220 µM
NIH3T3; [5]
  IC50: 60 µM
S180 sarcoma; [11]
  Body weight of the animals, beginning, First time: 19.2 g
  Body weight of the animals, end, First time: 24.7 g
  Inhibition rate, First time: 23.97%
  Weight of the tumor X ± SD, First time: 2.03 ± 0.24 g
  Body weight of the animals, beginning, Second time: 18.5 g
  Body weight of the animals, end, Second time: 25.9 g
  Inhibition rate, Second time: 25.19%
S180 sarcoma; S180 sarcoma, Dosage 50, ip × 10qd
  Weight of the tumor X ± SD, Second time: 2.02 ± 0.21 g
S180 sarcoma; [12]
  Body weight of the animals, beginning, First time: 19.3 g
  Body weight of the animals, end, First time: 24.2 g
  Inhibition rate, First time: 35.21%
  Weight of the tumor X ± SD, First time: 1.73 ± 0.16 g
  Body weight of the animals, beginning, Second time: 18.6 g
  Body weight of the animals, end, Second time: 25.3 g
  Inhibition rate, Second time: 32.96%
S180 sarcoma; S180 sarcoma, Dosage 100, ip × 10qd
  Weight of the tumor X ± SD, Second time: 1.81 ± 0.20 g
S180 sarcoma; [6]
  Inhibition rate (%) S180 sarcomata: 32.2%
PLA-801; PLA-801, MTT, read-out: IC50
  IC50: 300 µM
Lewis lung cancer; [13]
  Body weight of the animals, end, First time: 25.4 g
  Body weight of the animals, end, Second time: 25.4 g
Lewis lung cancer; [14]
  Body weight of the animals, beginning, First time: 19.2 g
  Inhibition rate, First time: 31.40%
  Weight of the tumor X ± SD, First time: 2.01 ± 0.28 g
  Body weight of the animals, beginning, Second time: 20.2 g
  Inhibition rate, Second time: 27.98%
  Weight of the tumor X ± SD, Second time: 1.75 ± 0.09 g
Lewis lung cancer; [15]
  Body weight of the animals, end, First time: 24.8 g
  Body weight of the animals, end, Second time: 24.9 g
Lewis lung cancer; [16]
  Body weight of the animals, beginning, First time: 19.0 g
  Inhibition rate, First time: 37.20%
  Weight of the tumor X ± SD, First time: 1.84 ± 0.48 g
  Body weight of the animals, beginning, Second time: 20.4 g
  Inhibition rate, Second time: 37.86%
  Weight of the tumor X ± SD, Second time: 1.51 ± 0.09 g
Lewis lung cancer; [7]
  Inhibition rate (%) Lewis cancer: 33.4%
BGC-823; [8]
  IC50: 280 µM
Lovo; [9]
  IC50: 170 µM
Kunming mice
  LD50: 135.22
Bel-7402; [10]
  IC50: 230 µM

## COC(=O)c1cc2c3ccccc3n(C)c2cn1 [Compound 26, methyl 9-methyl-β-carboline-3-carboxylate]
HepG2; [17]
  IC50: 120 µM
Hela; [18]
  IC50: 180 µM
NIH3T3; [19]
  IC50: 90 µM
S180 sarcoma; [6]
  Inhibition rate (%) S180 sarcomata: 31.1%
PLA-801; [20]
  IC50: 120 µM
Lewis lung cancer; [7]
  Inhibition rate (%) Lewis cancer: 35.0%
BGC-823; [21]
  IC50: 180 µM
Lovo; [22]
  IC50: 180 µM
Kunming mice
  LD50: 70.61
Bel-7402; [23]
  IC50: 190 µM

## CCn1c2ccccc2c2cc(C(=O)OC)ncc21 [Compound 27, methyl 9-ethyl-β-carboline-3-carboxylate]
HepG2; [17]
  IC50: 160 µM
Hela; [18]
  IC50: 210 µM
NIH3T3; [19]
  IC50: 130 µM
S180 sarcoma; [6]
  Inhibition rate (%) S180 sarcomata: 29.0%
PLA-801; [20]
  IC50: 290 µM
Lewis lung cancer; Lewis lung cancer in mice, among 22 compounds tested
  Anti-tumor activity compared with harmine (compound 1): a little worse than or equivalent to that of harmines
Lewis lung cancer; [7]
  Inhibition rate (%) Lewis cancer: 30.5%
BGC-823; [21]
  IC50: 250 µM
Lovo; [22]
  IC50: 110 µM
Kunming mice
  LD50: 95.06
Bel-7402; [23]
  IC50: 530 µM

## CCOC(=O)c1cc2c3ccccc3n(Cc3c(F)c(F)c(F)c(F)c3F)c2c(C)n1 [Compound 60, ethyl 9-(2′,3′,4′,5′,6′-pentafluoro)benzyl-1-methyl-β-carboline-3-carboxylate]
HepG2; HepG2 cell strain, read-out: IC50 HepG2
  IC50: 30 µM
Hela; Hela cell strain, read-out: IC50 Hela
  IC50: 20 µM
NIH3T3; NIH3T3 cell strain, read-out: IC50 NIH3T3
  IC50: 40 µM
PLA-801; [20]
  IC50: 50 µM
HepG2 cells
  Apoptosis of HepG2 cells (FCM analysis): apoptosis of HepG2 cells induced
BGC-823; BGC823 cell strain, read-out: IC50 BGC823
  IC50: 4 µM
Lovo; Lovo cell strain, read-out: IC50 Lovo
  IC50: 40 µM
Bel-7402; Bel7402 cell strain, read-out: IC50 Bel7402
  IC50: 100 µM
